Assay results reported in publication PMC7203153, “Rational identification and characterisation of peptide ligands for targeting polysialic acid” (Scientific Reports, 2020).
Marks after values point to notes of the source that are not given here. Where a SMILES comes first, the peptide text is derived from it.

What was measured:
[1] = Competitive microarray selectivity screening with α-2,8/9-PSA; format: binding, Escherichia coli; details: for % selectivity: binding to 10 μM α-2,8-PSA (CA) with 10% competing α-2,8/9-PSA, ± SD of triplicate intra-assay measurements, SD; for selectivity mark in Table 1: 10% competing α-2,8/9-PSA
Description: Competitive microarray screening with α-2,8/9-PSA was conducted in order to assess selective binding of peptides to α-2,8-PSA. The definition of percent selectivity at 10% competing glycan was applied to enable selectivity comparisons amongst a larger set of peptides[25] […] However, the use of an isomeric polymer is a more stringent assessment of selectivity; here, selective binding is guided by three-dimensional conformation and not additionally by differences in functional groups.
Peptide library synthesis, microarray preparation, and microarray screening were performed as described previously[25] with the following specifications. Siglec-related sequences were N-terminally acetylated to match the charge of the corresponding protein fragment. All peptides were printed in triplicate (60 nL spots), and each initial affinity screening was carried out at least three times. Screening was conducted with 10 μM colominic acid (CA; 5 mL per microarray), the Escherichia coli homolog of α-2,8-PSA identical in structure to human-derived PSA[67], and with antibody-based chemiluminescent detection of CA. For selectivity screening, microarrays were challenged with 10 μM CA with 0, 0.1, 1, and 10 μM α-2,8/9-PSA in separate conditions (5 mL total volume each), where molar concentrations were based on molecular weight estimation of synthesized 2,8/9-PSA (details on α-2,8/9-PSA production, purification, and analysis are provided in Supplementary Information). Selectivity screening with monomeric sialic acid was conducted with mass and molar equivalents of N-acetylneuraminic acid (Rose Scientific, Ltd.) along with 10 μM CA (5 mL total volume each). The mass equivalent amount of sialic acid (specifically, 970 μM sialic acid for a given volume of 10 μM CA) was calculated for CA of an average degree of polymerization of 100. For study of pH-dependent binding, affinity screening with CA was performed using PBS buffers of pH 6.0, 7.0, 7.4, and 8.0 (10 mM phosphate, 100 mM NaCl). The impact of NaCl on peptide binding was assessed at pH 7.4 with 0, 100, and 200 mM NaCl. […]

[2] = Fluorescence anisotropy (FA) assay of peptide–PSA binding; parameters: species or system Escherichia coli; details: for Kd: FA titration, N-acetylated, C-terminally TAMRA-labelled peptide 20 nM, CA 0–1500 μM, PBS pH 7.4 (10 mM phosphate, 100 mM NaCl), 3 h, ~20 °C, four-parameter logistic fit, at least triplicate, * = accuracy likely poor (SE > KD)
Description: Peptides (Table 2) were synthesized at >95% purity (confirmed with HPLC) by Biomatik (see Supplementary Information). All peptides were N-terminally acetylated and C-terminally labelled with tetramethylrhodamine dye (TAMRA). TAMRA was chosen as a label due to its pH insensitivity compared to FAM (fluorescein) and related dyes commonly used for fluorescence assays. Experiments were conducted in black 384-well plates with non-binding surface (NBS, Corning, Inc.) to minimize background binding and enhance signal-to-noise ratio in the fluorescence-based binding assay. Titrations were carried out through addition of TAMRA-labelled peptide (8 μL, final concentration 20 nM) to CA (72 μL, final concentrations 0–1500 μM) in PBS, pH 7.4 (10 mM phosphate, 100 mM NaCl), and solutions were incubated with agitation to equilibrium at room temperature (3 h, ~20 °C). Parallel and perpendicular intensities were subsequently measured at 530 nm excitation (band width 5 nm) and 580 nm emission (band width 20 nm) in fluorescence polarization mode with a Tecan Infinite M1000 Pro plate reader. Total fluorescence intensities were also measured as a control for fluorophore properties with target binding; fluorescence intensities of free peptide were determined to be approximately equivalent to intensities with peptide–CA mixtures. At higher concentrations of free CA (control with no peptide addition), attenuation of detected light differed in parallel and perpendicular planes, so respective intensities were subtracted from peptide–CA intensities prior to anisotropy calculations. […] Unique samples were screened in at least triplicate within each titration experiment, and each peptide titration was carried out at least twice. In experimental repeats, peptide locations on plates were varied to prevent location-specific effects, if any, and different combinations of peptides were assessed at once. Anisotropies were calculated from corrected parallel and perpendicular intensities, and values were fit to the four-parameter logistic binding model[70] in MATLAB. Prior to curve fitting, anisotropy values for each peptide were transformed through subtraction of minimum values to enhance comparison between peptides. The resulting translations in binding curves were identical, within error, to change in anisotropy curves obtained through subtraction of anisotropy of free labelled peptide. Bmax and KD values obtained were used in the calculation of Bmax/KD ratios for comparison to microarray intensity values, and the Pearson correlation coefficient (r) was determined.

[3] = Peptide microarray affinity screening against α-2,8-PSA (colominic acid); format: binding, Escherichia coli; details: 10 μM CA, pH 7.4
Description: Peptide library synthesis, microarray preparation, and microarray screening were performed as described previously[25] with the following specifications. Siglec-related sequences were N-terminally acetylated to match the charge of the corresponding protein fragment. All peptides were printed in triplicate (60 nL spots), and each initial affinity screening was carried out at least three times. Screening was conducted with 10 μM colominic acid (CA; 5 mL per microarray), the Escherichia coli homolog of α-2,8-PSA identical in structure to human-derived PSA[67], and with antibody-based chemiluminescent detection of CA. For selectivity screening, microarrays were challenged with 10 μM CA with 0, 0.1, 1, and 10 μM α-2,8/9-PSA in separate conditions (5 mL total volume each), where molar concentrations were based on molecular weight estimation of synthesized 2,8/9-PSA (details on α-2,8/9-PSA production, purification, and analysis are provided in Supplementary Information). Selectivity screening with monomeric sialic acid was conducted with mass and molar equivalents of N-acetylneuraminic acid (Rose Scientific, Ltd.) along with 10 μM CA (5 mL total volume each). The mass equivalent amount of sialic acid (specifically, 970 μM sialic acid for a given volume of 10 μM CA) was calculated for CA of an average degree of polymerization of 100. For study of pH-dependent binding, affinity screening with CA was performed using PBS buffers of pH 6.0, 7.0, 7.4, and 8.0 (10 mM phosphate, 100 mM NaCl). The impact of NaCl on peptide binding was assessed at pH 7.4 with 0, 100, and 200 mM NaCl.
Microarray image and data analysis was performed as described. […] Of the triplicate experiments used to generate mean microarray affinity intensities in standard conditions (within each of which 762 peptides were represented in triplicate), 225 out of 762 values in one of these three experiments were derived from raw data previously reported, but were alternatively analysed as stated. Peptide isoelectric points were calculated with the EMBOSS iep program.

[4] = at least two independent experiments

Compound | % selectivity [1] [%] | further results
LSPRRTRPSTSHFSV [I-P86] | 62 ± 10 | 
GRTSPKAGAPVATNN [I-P346, Siglec-11-derived peptide with T7A mutation] | 91 ± 15 | 
WFKGKTSPKTGAPVA [I-P333, Siglec-11-derived peptide with R5K mutation] | 59 ± 2 | 
KGKGKGKGKGKGKGK [I-P378, de novo designed peptide with alternating Lys and Gly residues] | 60 ± 9 | 
AISSPLLRNPFRGGGS [II-P213, phage display screening peptide with W8R mutation] | 66 ± 9 | 
CC[C@H](C)[C@H](NC(C)=O)C(=O)N[C@@H](Cc1ccc(O)cc1)C(=O)N1CCC[C@H]1C(=O)NCC(=O)N[C@@H](CO)C(=O)NCC(=O)N[C@@H](CC(N)=O)C(=O)N[C@H](C(=O)N[C@@H](CCCCN)C(=O)N[C@@H](Cc1ccc(O)cc1)C(=O)N[C@@H](CC(N)=O)C(=O)N[C@@H](CCC(=O)O)C(=O)N[C@@H](CCCCN)C(=O)N[C@@H](Cc1ccccc1)C(=O)N[C@@H](CCCCN)C(N)=O)[C@@H](C)O [II-P76] (Ac-IYPGSGNTKYNEKFK-NH2) |  | Kd [2, 4]: 1290 µM
WFKGRTSPKTGAPVA [I-P330, Siglec-11-derived peptide] | 35 ± 1 | 
KGGGKGGGKGGGKGG [I-P379, de novo peptide composed of lysine and glycine residues] | 61 ± 7 | 
VDFSRKGVSAQRTVR [I-P102] | 59 ± 10 | 
TLPAILQASGTRGGGS [II-P145, phage display screening peptide with S8A mutation] | 81 ± 16 | 
GRTSAKTGAPVATNN [I-P344, Siglec-11-derived peptide with P5A mutation] | 85 ± 8 | 
VKICRKEARKRAAAE [I-P279] | 46 ± 12 | 
LKVTALTKKPDVYIP [I-P62] | 67 ± 17 | 
WGPRTLGLELRGVRA [I-P143] | 37 ± 1 | 
LSNAFFLKVTALTKK [I-P59] | 52 ± 10 | 
VPYTFGGGTRLEIKG [II-P50, peptide designed from mAb735] | 71 ± 9 | 

Compound | % selectivity [1] [%] | further results
YWFKGRTSPKTGAPV [I-P23] | 43 ± 3 | 
GSGSGTDFTLKISRV [II-P35, peptide designed from mAb735] | 53 ± 6 | 
QELHYASLSFQGLRL [I-P307] | 80 ± 14 | 
AALSPRRTRPSTSHF [I-P85] | 59 ± 5 | 
CC(=O)N[C@@H](CCC(=O)O)C(=O)N[C@@H](Cc1c[nH]cn1)C(=O)NCC(=O)NCC(=O)NCC(=O)N[C@@H](CC(C)C)C(=O)NCC(=O)N[C@@H](CC(C)C)C(=O)NCC(=O)N[C@@H](C)C(=O)N[C@@H](C)C(=O)N[C@@H](CC(C)C)C(=O)NCC(=O)N[C@@H](C)C(=O)NCC(N)=O [I-P264] (Ac-EHGGGLGLGAALGAG-NH2) |  | change in microarray binding with 200 mM vs 100 mM NaCl [3]: did not display any change in binding
CC(=O)N[C@@H](CC(N)=O)C(=O)N[C@@H](CCCNC(=N)N)C(=O)N[C@H](C(=O)N[C@H](C(=O)N[C@@H](CC(C)C)C(=O)N[C@@H](CCCNC(=N)N)C(=O)N[C@@H](CC(N)=O)C(=O)N[C@@H](CC(C)C)C(=O)NCC(=O)N[C@@H](CC(N)=O)C(=O)NCC(=O)N[C@H](C(=O)N[C@@H](CO)C(=O)N[C@@H](CC(C)C)C(=O)N1CCC[C@H]1C(N)=O)[C@@H](C)O)C(C)C)[C@@H](C)O [II-P336] (Ac-NRTVLRNLGNGTSLP-NH2) |  | selectivity mark in Table 1 [1]: II-P336* (Peptides with selectivity >80%); Kd [2, 4]: 577 µM; Bmax/KD ratio (binding potential) ([2]; from FA curve fits, among the peptides characterised with FA): highest
PGSGNTKYNEKFKGK [II-P77, peptide designed from mAb735] | 49 ± 5 | 
RKGVSAQRTVRLRVA [I-P104] | 45 ± 4 | 
GGKGGGKGGGKGGGK [I-P380, de novo peptide composed of lysine and glycine residues] | 56 ± 7 | 
FRVKICRKEARKRAA [I-P278] | 43 ± 8 | 
KIHTGQPLRGPGFGL [I-P323] | 86 ± 8 | 
AISSPLLKNPFRGGGS [II-P214, phage display screening peptide with W8K mutation] |  | selectivity mark in Table 1 [1]: II-P214* (Peptides with selectivity >80%)
FSRKGVSAQRTVRLR [I-P103] | 55 ± 11 | 
CC(=O)N[C@@H](CCCCN)C(=O)N[C@@H](CC(=O)O)C(=O)N1CCC[C@H]1C(=O)N[C@@H](CO)C(=O)N[C@@H](Cc1ccc(O)cc1)C(=O)N[C@@H](CO)C(=O)N[C@@H](CC(C)C)C(=O)N[C@@H](CCC(N)=O)C(=O)N[C@H](C(=O)N[C@@H](CCC(N)=O)C(=O)N[C@@H](CCCNC(=N)N)C(=O)N[C@@H](CCC(N)=O)C(=O)N[C@H](C(=O)N1CCC[C@H]1C(=O)N[C@H](C(N)=O)C(C)C)C(C)C)C(C)C [I-P2] (Ac-KDPSYSLQVQRQVPV-NH2) |  | Kd [2, 4]: 405 µM; Non-adjusted anisotropy ([2]; PSA concentration 1500 µM, ± inter-assay SD, at least two independent experiments, SD): 35.8 ± 11.5; change in microarray binding with 200 mM vs 100 mM NaCl [3]: did not display any change in binding
NAFFLKVTALTKKPD [I-P60] | 70 ± 18 | 
YSEIKIHTGQPLRGP [I-P321] | 85 ± 18 | 
